In data set [1] the test system is Enterobacter cloacae 1321 E. Nature of the data set: Measurement of Minimum Inhibitory Concentration (MIC). The data set is classed as cell-based. Here is the method: (§1) The antibacterial activities of the compounds of the present invention prepared in the above Examples against Gram-positive and Gram-negative bacteria, MRSA and QRS were tested as follows.
(§2) Respective bacterial strains were inoculated into 3 ml of Fleisch extract broth (beef extract 1%, peptone 1%, NaCl 0.3%, Na2HPO4.12H2O 0.2%, pH 7.4-7.5. 10% horse serum was supplemented for Streptococcus pyogenes and S. facium) and cultured on a shaking incubator at 37° C. for 18 hours. About 10^4 CFU/spot of the cultured bacterial strains were inoculated onto Müller-Hinton agar plates containing serial double dilutions (final concentration of 0.002 to 100 μg/ml) of a test compound employing an automatic inoculator (Dynatech, USA), and incubated at 37° C. for 18 hours. When the incubation was completed, the minimum inhibitory concentration was determined. Meropenem (Yuhan corporation, Korea) and vancomycin (Cj Inco., Korea) were used as standard antibiotics, respectively.

Data set [2] concerns Enterobacter cloacae P 99. The data set is described as above. The data set is classed as cell-based. The method, then: as §1, §2
For another data set, the system named is Escherichia coli 078. The data set is described as above. The class given is cell-based. Here is the method: as §1, §2
In the next data set the test system is Escherichia coli 1507 E. Described as above. The class given is cell-based. Here is the method:
as §1, §2

The subject of a further data set is Escherichia coli DC 0. The description is as above. The data set is classed as cell-based. The method, then: as §1, §2
For the next data set, the system named is Escherichia coli DC 2. The data set is described as above. The data set is classed as cell-based. Here is the method:
as §1, §2

A further data set concerns Escherichia coli TEM. The data set is described as above. The data set is classed as cell-based. To be noted: Escherichia coli TEM. Here is the method: as §1, §2
Data set [3] deals with Klebsiella aerogenes 1522 E. The data set is described as above. The class given is cell-based. The method, then:
as §1, §2

Data set [4] has as its system Klebsiella oxytoca 1082 E. The description is as above. The class given is cell-based. Here is the method:
as §1, §2

For data set [5], the system named is Salmonella typhimurium 179. Described as above. The class given is cell-based. The note with it: Salmonella typhimurium 179. The method, then:
as §1, §2

Data set [6] concerns Staphylococcus aureus 285. The description is as above. The class given is cell-based. Here is the method: as §1, §2
The subject of data set [7] is Staphylococcus aureus 503. The description is as above. The class given is cell-based. The method, then: as §1, §2
For data set [8], the system named is Staphylococcus faecium MD 8b. Described as above. The class given is cell-based. To be noted: Staphylococcus faecium MD 8b. The method, then: as §1, §2
Data set [9] has as its system Staphylococcus pyogenes 308A. The description is as above. The data set is classed as cell-based. To be noted: Staphylococcus pyogenes 308A. The method, then:
as §1, §2

Data set [10] deals with Staphylococcus pyogenes 77A. The description is as above. The data set is classed as cell-based. To be noted: Staphylococcus pyogenes 77A. The method, then:
as §1, §2

The test system of data set [11] is Staphylococcus aureus 121E. Nature of the data set: Measurement of Minimum Inhibitory Concentration (MIC), MRSA. The class given is cell-based. The note with it: Staphylococcus aureus 121E. The method, then: as §1, §2
For data set [12], the system named is Staphylococcus aureus 208E. Described as above. The data set is classed as cell-based. The note with it: Staphylococcus aureus 208E. Here is the method:
as §1, §2

For data set [13], the system named is Staphylococcus aureus 256E. Described as above. The class given is cell-based. The note with it: Staphylococcus aureus 256E. Here is the method:
as §1, §2

Data set [14] relates to Staphylococcus aureus 690E. The description is as above. The class given is cell-based. The note with it: Staphylococcus aureus 690E. The method, then:
as §1, §2

For data set [15], the system named is Staphylococcus aureus 692E. The description is as above. The data set is classed as cell-based. To be noted: Staphylococcus aureus 692E. Here is the method:
as §1, §2

Data set [16] has as its system Staphylococcus aureus 693E. The description is as above. The class given is cell-based. The note with it: Staphylococcus aureus 693E. The method, then:
as §1, §2

The test system of data set [17] is Staphylococcus aureus 694E. Described as above. The data set is classed as cell-based. To be noted: Staphylococcus aureus 694E. Here is the method:
as §1, §2

For data set [18], the system named is Staphylococcus aureus 695E. Described as above. To be noted: Staphylococcus aureus 695E. The data set is classed as cell-based. Here is the method:
as §1, §2

In data set [19] the test system is Staphylococcus aureus 697E. The data set is described as above. The data set is classed as cell-based. The note with it: Staphylococcus aureus 697E. Here is the method: as §1, §2
In data set [20] the test system is Staphylococcus aureus 88E. The data set is described as above. The data set is classed as cell-based. The note with it: Staphylococcus aureus 88E. Here is the method:
as §1, §2

For data set [21], the system named is Staphylococcus aureus 179. Nature of the data set: Measurement of Minimum Inhibitory Concentration (MIC), QRS. The data set is classed as cell-based. The note with it: QRS, Staphylococcus aureus 179. The method, then:
as §1, §2

In data set [22] the test system is Staphylococcus aureus 241. The data set is described as above. The class given is cell-based. The note with it: QRS, Staphylococcus aureus 241. Here is the method:
as §1, §2

For data set [23], the system named is Staphylococcus aureus 293. The data set is described as above. The data set is classed as cell-based. To be noted: QRS, Staphylococcus aureus 293. Here is the method: as §1, §2
In data set [24] the test system is Staphylococcus epidermidis 178. Described as above. The class given is cell-based. The note with it: QRS, Staphylococcus epidermidis 178. Here is the method:
as §1, §2

For data set [25], the system named is Staphylococcus epidermidis 291. The data set is described as above. The class given is cell-based. To be noted: QRS, Staphylococcus epidermidis 291. The method, then: as §1, §2
Data set [26] is described as follows: Test of Pharmacokinetics in Animals (mice). The class given is in vivo. The note with it: mouse, in vivo, 40 mg/kg. Here is the method:
The pharmacokinetics of the carbapenem derivatives of the present invention was determined using mice. […] Standard antibiotic samples were prepared by serial two-fold dilution with control blood. […] PK (pharmacokinetic) change indicators (AUC, Tmax, Cmax and T1/2) of the test compound concentration remaining in the mouse blood over time were assayed over a set period.

Data set [27] concerns the target T1, Dihydropeptidase-1 (DHP-1) (Sus scrofa, UniProt P22412).
T1 sequence (P22412 17-384): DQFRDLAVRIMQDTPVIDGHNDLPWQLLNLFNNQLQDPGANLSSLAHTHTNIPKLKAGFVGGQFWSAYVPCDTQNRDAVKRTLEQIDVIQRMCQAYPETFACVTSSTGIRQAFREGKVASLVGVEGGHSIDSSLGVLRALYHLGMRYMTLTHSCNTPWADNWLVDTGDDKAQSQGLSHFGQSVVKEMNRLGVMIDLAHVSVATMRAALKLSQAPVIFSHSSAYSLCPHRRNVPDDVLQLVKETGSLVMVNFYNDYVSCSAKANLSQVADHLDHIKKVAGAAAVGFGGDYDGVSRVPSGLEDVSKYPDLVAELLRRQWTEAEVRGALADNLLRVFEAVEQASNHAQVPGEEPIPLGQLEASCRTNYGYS
Protocol: (§3) The rate of degradation of the inventive compounds by the action of DHP-1 enzyme extracted from hog kidney was determined as follow.
(§4) 0.2 unit of the enzyme was allowed to react with the above solution at 30° C., and the absorbance at 299 nm of the remaining medicament was measured to determine the degradation rate. The absorbance was measured at 0, 0.5, 1, 2 and 4 hour points, and T1/2, the time when the concentration of the medicament become the half, was obtained by regression analysis.

Data set [28] deals with T1, Dihydropeptidase-1 (DHP-1). Nature of the data set: Sensitivity Assay Against Dihydropeptidase-1 (DHP-1). To be noted: pig, DHP-1 enzyme extracted from hog kidney.
Protocol: as §3, §4

Two molecules from patent US7662810B2, “2-arylmethylazetidine carbapenem derivatives and preparation thereof” (Korea Research Institute of Chemical Technology, priority 2004, dated 2010) can be followed below.

As to `C[C@@H](O)[C@H]1C(=O)N2C(C(=O)[O-])=C(SC3CN(Cc4ccccc4)C3)[C@H](C)[C@H]12.[K+]` [Exam. 13, Potassium(1R,5S,6S)-2-(1-benzyl-azetidine-3-yl-thio)-6-[(1R)-1-hydroxylethyl]-1-methylcarbapen-2-em-3-carboxylate], the minimum inhibitory concentration (MIC) in data set [1] was 0.049 µg/mL; in data set [2] it was 0.098 µg/mL; against Escherichia coli 078, 0.049 µg/mL; in the data set on Escherichia coli 1507 E, 0.049 µg/mL; against Escherichia coli DC 0 it was 0.098 µg/mL; against Escherichia coli DC 2, 0.025 µg/mL. The minimum inhibitory concentration (MIC) turned out to be 0.049 µg/mL in the data set with Escherichia coli TEM; 0.098 µg/mL in data set [3]; 0.049 µg/mL in data set [4]; 0.049 µg/mL in data set [5]; 0.025 µg/mL in data set [6]; 0.013 µg/mL in [7]. Further, the MIC amounted to 1.563 µg/mL in data set [8]; 0.002 µg/mL in data set [9]; 0.002 µg/mL in data set [10]; 0.025 µg/mL in data set [11]; 0.049 µg/mL in data set [12]; 0.013 µg/mL in data set [13]. Also, the minimum inhibitory concentration (MIC) in data set [14] came out at 0.391 µg/mL; in data set [15], 0.025 µg/mL; in [16] it was 3.125 µg/mL; in data set [17] it was 1.563 µg/mL; in [18], 0.391 µg/mL; in data set [19] it was 0.025 µg/mL. The MIC in data set [20] was determined as 0.025 µg/mL; in [21] it was 0.049 µg/mL; in [22], 0.049 µg/mL; in data set [23], 0.098 µg/mL; in [24] it was 0.391 µg/mL; in data set [25], 0.391 µg/mL. For the same molecule, the “AUC, times higher than meropenem” value in data set [26] lay in the range of 10 to 12 times. Besides, the “increase in T1/2 than meropenem” value in data set [26] was “more than 2 times”. Also, the “AUC (area under blood-medicament concentration curve till 24 hours from administration)” value came out at 1730 ng·h/mL in [26] (po) and 94760 ng·h/mL in data set [26] (sc). Besides, the maximum concentration (Cmax) in data set [26] (po) was 1060 ng/mL; in [26] (sc), 86830 ng/mL. The “T1/2 (half time of blood-medicament concentration)” value in [26] (po) stood at 48.6 min; in data set [26] (sc), 55.2 min. The Tmax turned out to be 29.4 min in data set [26] (po) and 13.2 min in [26] (sc). Further, the “absorption through the oral route” value in [26] (po) was “absorbed through the oral route to significant extents”. Moreover, in [27], the “T1/2 (time when the concentration of the medicament become the half)” value is 19.28.
In turn, `C[C@@H](O)[C@H]1C(=O)N2C(C(=O)O)=C(SCCN=CN)C[C@H]12` [Imipenem, imipenem] showed a half-life at 500 μg/ml in data set [28] of 143 min.
